Test results from the Kinase Knowledgebase extract (Sharma et al. 2016).
pIC50: −log10 of the molar value.

Key:
[1] = molecular target: CDK2 (UniProt P24941); experiment: Enzyme Assay
[2] = molecular target: CDK2 (human) (UniProt P24941); experiment: Cell-Based Assay; settings: hdf
[3] = molecular target: CDK2 (human) (UniProt P24941); experiment: Cell-Based Assay; settings: rko
[4] = molecular target: CDK2 (human) (UniProt P24941); experiment: Cell-Based Assay

For O=C1Nc2ccc3ncsc3c2/C1=C/Nc1ccc2nn[nH]c2c1, the pIC50 [1] was 7.30 to 7.96, the pIC50 [2] was < 5.30 and the pIC50 [3] was < 5.30. The pIC50 ([4]; hdf) was < 5.30, the pIC50 ([4]; hdf-3) was < 5.30 and the pIC50 ([4]; mda-mb-468) was 5.30 to 5.96.
In the case of CN(C)S(=O)(=O)c1ccc(N/C=C2\C(=O)Nc3ccc(-c4cnco4)cc32)cc1, the pIC50 [1] was 8.00 to 9.00, the pIC50 [2] was < 5.30 and the pIC50 [3] was 5.30 to 5.96. The pIC50 ([4]; hdf-3) was < 5.30, the pIC50 ([4]; mda-mb-468) was < 5.30 and the pIC50 ([4]; mes/sa) was < 5.30. For the same compound, the pIC50 ([4]; rko) was 5.30 to 5.96.
For CNS(=O)(=O)Cc1ccc(NN=C2C(=O)Nc3cc(C)c(O)c(C)c32)cc1, the pIC50 [1] was 7.00 to 7.29, the pIC50 [2] was < 5.30 and the pIC50 [3] was 6.30 to 7.00. For the same compound, the pIC50 ([4]; hdf) was 6.00 to 6.22, the pIC50 ([4]; hdf-3) was 5.30 to 5.96 and the pIC50 ([4]; mes/sa) was < 5.30. For the same compound, the pIC50 ([4]; rko) was 6.30 to 7.00.
CCC(C)Cc1cccc2c1C(=NNc1ccc(S(N)(=O)=O)cc1)C(=O)N2 (stereo not given) was tested, and the pIC50 [1] was 8.00 to 9.00, the pIC50 [2] was < 5.30 and the pIC50 [3] was 5.30 to 5.96. For the same compound, the pIC50 ([4]; hdf-3) was 5.30 to 5.96.
With CNS(=O)(=O)Cc1ccc(NN=C2C(=O)Nc3ccc4ncccc4c32)cc1 the pIC50 [1] was 8.00 to 9.00, the pIC50 [2] was < 5.30 and the pIC50 [3] was 5.30 to 5.96. The pIC50 ([4]; hdf) was < 5.30, the pIC50 ([4]; hdf-3) was 5.30 to 5.96 and the pIC50 ([4]; rko) was < 5.30.
For NS(=O)(=O)c1ccc(NN=C2C(=O)Nc3ccc(-c4cnco4)cc32)cc1, the pIC50 [1] was 8.00 to 9.00, the pIC50 [2] was < 5.30 and the pIC50 [3] was 6.00 to 6.22. It also gave a pIC50 ([4]; hdf) of 5.30 to 5.96, a pIC50 ([4]; hdf-3) of 6.00 to 6.22 and a pIC50 ([4]; mda-mb-468) of 6.00 to 6.22. For the same compound, the pIC50 ([4]; mes/sa) was 6.30 to 7.00 and the pIC50 ([4]; rko) was 6.00 to 6.22.
With CS(=O)(=O)Cc1ccc(N/C=C2\C(=O)Nc3ccc4ncsc4c32)cc1 the pIC50 [1] was 7.30 to 7.96, the pIC50 [2] was < 5.30 and the pIC50 [3] was 5.30 to 5.96. For the same compound, the pIC50 ([4]; hdf) was < 5.30, the pIC50 ([4]; hdf-3) was 5.30 to 5.96 and the pIC50 ([4]; mes/sa) was 5.30 to 5.96. For the same compound, the pIC50 ([4]; rko) was < 5.30.
